The first test has as its system RSV A2 strain. Briefly: In vitro CPE (CytoPathic Effect) inhibition effect evaluation test, RSV type A. Format: cell-based. As to conditions: human respiratory syncytial virus; inhibitory effect against RSV type A (RSV A2 strain), HEp-2 cells, CPE inhibition; read-out: EC50. The protocol:
The test sample is diluted in advance to an appropriate concentration with DMSO, and 3-fold series of serial dilutions were prepared on a 384-well plate (0.32 μL/well). HEp-2 cells (CCL-23; ATCC) adjusted at appropriate number (2.4×10^5 cells/mL) in 2% FBS E-MEM (prepared by adding kanamycin and FBS to Eagle's Minimum Essential Medium; Invitrogen) were added at 12.5 μL/well to the 384-well plate previously aliquoted with the test samples. The RSV A2 strain was diluted to an appropriate concentration in a culture medium and added to the 384-well plate containing the test sample at 12.5 μL/well. The culture medium was added additionally to the 384-well plate, and the test was started with 50 μL/well. Control wells were prepared with only virus-free culture medium. The plate was incubated in a 5% CO2 incubator at 37° C. for 4 days, and the plate was then placed at room temperature for 30 minutes. CellTiter-Glo (registered trademark) 2.0 assay (Promega) was added at 15 μL/well, mixed for 30 seconds, and the plate was placed for approximately 1 hour. The luminescent signal was then measured by EnVision (PerkinElmer). The inhibitory effect of the test agents on RSV-induced CPE was calculated as 0% and 100% inhibition rate for each sample concentration based on the level of remaining viable cells by CellTiter-Glo (registered trademark) 2.0, with the EC50 value for each compound calculated by nonlinear regression as the concentration that inhibits RSV-induced CPE by 50%. In the case of evaluation against RSV type B, RSV B (Wash/18537 strain) was infected in the same manner as the type A, cultured for 5 days, and quantitated in the same manner as for the A2 strain.
Take `O=C(NC1(C(=O)O)C2CC3CC(C2)CC1C3)c1cnc(N2CC3(CCOCC3)c3cc(O)ccc32)nc1C(F)(F)F` (stereo not drawn) [Compound I-201]: the EC50 – broadly, the concentration giving half of the maximal effect – was 10 to 100 nM.
In the case of `CCc1nc(COc2ccc3c(c2)CCN3c2ncc(C(=O)NC3(C(=O)O)CCCCC3)c(C(F)(F)F)n2)cs1` [Compound I-59], the half-maximal effective concentration (EC50) lay within 10 to 100 nM.
For the compound `Cc1ccc2c(c1)C1(CCN(C(=O)OCc3ccccc3)CC1)CN2c1ncc(C(=O)NC2(C(=O)O)C3CC4CC(C3)CC2C4)c(C(F)(F)F)n1` (stereo not drawn) [Compound I-132], the half-maximal effective concentration (EC50) fell in the range of 10 to 100 nM.
Consider `CC1(C)CCCC(NC(=O)c2cnc(-c3cn(C4CCC(F)(F)CC4)c4cc(OC5CCN(c6ncccn6)CC5)ccc34)nc2C(F)(F)F)(C(=O)O)C1` (racemic) [Compound I-262], for which the 50% effective concentration (EC50) was less than 10 nM.
Same read-out and setting: with `O=C(NC1(C(=O)O)C2CC3CC(C2)CC1C3)c1cnc(-c2cn(CCc3ccccc3)c3cc(OC4CCN(c5ncc(F)cn5)CC4)ccc23)nc1C(F)(F)F` (stereo not drawn) [Compound I-469] the figure was less than 10 nM; with `O=C(O)/C=C/C1(NC(=O)c2cnc(N3CC4(CCOCC4)c4cc(OC5CCN(c6ncccn6)CC5)ccc43)nc2C(F)(F)F)C2CC3CC(C2)CC1C3` (stereo not drawn) [Compound I-208], less than 10 nM; with `CN(C)CCc1nc(N2CC3(CCOCC3)c3cc(OC4CCN(c5ncccn5)CC4)ccc32)nc(C(F)(F)F)c1C(=O)NC1(C(=O)O)C2CC3CC(C2)CC1C3` (stereo not drawn) [Compound I-168], less than 10 nM.
Take `O=C(NC1(C(=O)O)C2CC3CC(C2)CC1C3)c1ccc(-c2cn([C@H]3CC[C@H](C(F)(F)F)CC3)c3cc(OC4CCN(c5ncccn5)CC4)ccc23)nc1C(F)(F)F` (stereo partly drawn) [Compound I-286]: the EC50 fell in the range of 10 to 100 nM.
As to `COc1ccc2c(c1)C1(CCOCC1)CN2c1ncc(C(=O)NC2(C(=O)O)CCCCC2)c(C(F)(F)F)n1` [Compound I-76], the half-maximal effective concentration (EC50) is 10 to 100 nM.
The same measure, in the same setting: for `O=C(NC1(C(=O)O)C2CC3CC(C2)CC1C3)c1cnc(-c2cn(C3CCC(F)(F)CC3)c3cc(OC4CCN(C(=O)c5ncccn5)CC4)ccc23)nc1C(F)(F)F` (stereo not drawn) [Compound I-260] the value was 10 to 100 nM; for `COc1cccnc1N1CCC(Oc2ccc3c(c2)CCN3c2ncc(C(=O)NC3(C(=O)O)CCCCC3)c(C(F)(F)F)n2)CC1` [Compound I-77], less than 10 nM.
For the compound `O=C(N[C@@]1(C(=O)O)[C@@H]2C[C@@H]3C[C@H]1C[C@@](F)(C3)C2)c1cnc(N2CC3(CCOCC3)c3cc(OC4CCN(c5ncccn5)CC4)ccc32)nc1C(F)(F)F` [Compound I-164], the EC50 is less than 10 nM.
Same read-out and setting: with `O=C(NC1(C(=O)O)C2CC3CC(C2)CC1C3)c1cnc(N2CC3(CCCCC3)c3cc(OC4CCN(c5ncccn5)CC4)c(F)cc32)nc1C(F)(F)F` (stereo not drawn) [Compound I-394] the figure was less than 10 nM; with `CC(=O)N1CCC(Oc2ccc3c(c2)CCN3c2ncc(C(=O)NC3(C(=O)O)CCCCC3)c(C(F)(F)F)n2)CC1` [Compound I-64], 100 to 5000 nM.
Take `O=C(NC1(C(=O)O)C2CC3CC(C2)CC1C3)c1cnc(N2CC3(CCOCC3)c3cc(OCC(F)F)ccc32)nc1C(F)(F)F` (stereo not drawn) [Compound I-459]: the concentration giving a half-maximal response (EC50) is less than 10 nM.
As for `O=C(NC1(C(=O)O)C2CC3CC(C2)CC1C3)c1cnc(N2CCc3cc(CN4CCN(c5ncccn5)CC4)ccc32)nc1C(F)(F)F` (stereo not drawn) [Compound I-213], the half-maximal effective concentration (EC50) is less than 10 nM.
Regarding `O=C(NC1(C(=O)O)CCC(F)(F)CC1)c1cnc(N2CCc3cc(OCCC4CCOCC4)ccc32)nc1C(F)(F)F` [Compound I-20], the half-maximal effective concentration (EC50) lay in the range of 10 to 100 nM.
As to `O=C(NC1(C(=O)O)C2CC3CC(C2)CC1C3)c1ccc(-c2cn([C@H]3CC[C@H](O)CC3)c3cc(OC4CCN(c5ncccn5)CC4)ccc23)nc1C(F)(F)F` (stereo partly drawn) [Compound I-195], the EC50 is less than 10 nM.
`Cc1cnn(CCOc2ccc3c(c2)CCN3c2ncc(C(=O)NC3(C(=O)O)CCCCC3)c(C(F)(F)F)n2)c1` [Compound I-75]: the 50% effective concentration (EC50) lay within 10 to 100 nM.
As for `CC1(C)CCC(n2cc(-c3ccc(C(=O)NC4(C(=O)O)C5CC6CC(C5)CC4C6)c(C(F)(F)F)n3)c3ccc(OC4CCN(c5ncccn5)CC4)cc32)CC1` (stereo not drawn) [Compound I-281], the EC50 is less than 10 nM.
For `O=C(NC1(C(=O)O)C2CC3CC(C2)CC1C3)c1cnc(N2CC3(CCOCC3)c3cc(Nc4ncccn4)ccc32)nc1C(F)(F)F` (stereo not drawn) [Compound I-435], the EC50 was less than 10 nM.
In the case of `O=C(NC1(C(=O)O)C2CC3CC(C2)CC1C3)c1cnc(-c2cn(C3CCC(F)(F)CC3)c3ccc(O[C@H]4CC[C@H](n5cccn5)CC4)cc23)nc1C(F)(F)F` (stereo partly drawn) [Compound I-232], the concentration for a half-maximal effect (EC50) was less than 10 nM.
Consider `COCCN1CCC(Oc2ccc3c(-c4ncc(C(=O)NC5(C(=O)O)C6CC7CC(C6)CC5C7)c(C(F)(F)F)n4)cn(C4CCC(F)(F)CC4)c3c2)CC1` (stereo not drawn) [Compound I-253], for which the concentration giving a half-maximal response (EC50) is less than 10 nM.
For the compound `COc1cncc(COc2ccc3c(c2)CCN3c2ncc(C(=O)NC3(C(=O)O)CCCCC3)c(C(F)(F)F)n2)c1` [Compound I-30], the concentration for a half-maximal effect (EC50) lay in the range of 10 to 100 nM.
Regarding `CC1CC(Oc2ccc3c(-c4ncc(C(=O)NC5(C(=O)O)C6CC7CC(C6)CC5C7)c(C(F)(F)F)n4)cn(C4CCC(F)(F)CC4)c3c2)CCN1c1ncc(F)cn1` (single isomer, unassigned) [Compound I-385], the concentration giving a half-maximal response (EC50) was less than 10 nM.
The same measure, in the same setting: for `O=C(NC1(C(=O)O)CCCCC1)c1cnc(N2CC3(CCCCC3)c3cc(OCCC4CCOCC4)ccc32)nc1C(F)(F)F` [Compound I-55] the value was less than 10 nM; for `O=C(NC1(C(=O)O)C2CC3CC(C2)CC1C3)c1cnc(N2CC3(CCOCC3)c3cc(OC4CN(C(=O)C5COC5)C4)ccc32)nc1C(F)(F)F` (stereo not drawn) [Compound I-230], less than 10 nM; for `O=C(NC1(C(=O)O)C2CC3CC(C2)CC1C3)c1ccc(-c2cn(C3CS(=O)(=O)C3)c3cc(OC4CCN(c5ncccn5)CC4)ccc23)nc1C(F)(F)F` (stereo not drawn) [Compound I-251], less than 10 nM.
As for `O=C(NC1(C(=O)O)C2CC3CC(C2)CC1C3)c1cnc(N2CCc3cc(OCCC4CCOCC4)ccc32)nc1C(F)F` (stereo not drawn) [Compound I-157], the EC50 was less than 10 nM.
In the case of `COC(=O)N1CCC(NC(=O)c2cnc(N3CC4(CCOCC4)c4cc(OC5CCN(c6ncccn6)CC5)ccc43)nc2C(F)(F)F)(C(=O)O)CC1` [Compound I-145], the EC50 is 10 to 100 nM.
Regarding `O=C(NC1(C(=O)O)CCCCC1)c1cnc(N2CCc3cc(C4=CCCN(c5ncccn5)C4)ccc32)nc1C(F)(F)F` [Compound I-71], the 50% effective concentration (EC50) was less than 10 nM.
Still for that read-out and setting: with `COc1ccc(COc2ccc3c(c2)CCN3c2ncc(C(=O)NC3(C(=O)O)CCOCC3)c(C(F)(F)F)n2)cc1` [Compound I-15] the figure was 10 to 100 nM; with `O=C(NC1(C(=O)O)CCCCC1)c1cnc(N2CCc3cc(NC4CCN(c5ncccn5)CC4)ccc32)nc1C(F)(F)F` [Compound I-67], 10 to 100 nM; with `COc1ccc(CCc2ccc3c(c2)CCN3c2ncc(C(=O)NC3(C(=O)O)CCCCC3)c(C(F)(F)F)n2)cc1` [Compound I-25], 10 to 100 nM.
Take `O=C(NC1(C(=O)O)C2CC3CC(C2)CC1C3)c1cnc(-c2cn(C3CCC(F)(F)CC3)c3cc(O[C@H]4CCN(C5COC5)C4)ccc23)nc1C(F)(F)F` (stereo partly drawn) [Compound I-248]: the EC50 is less than 10 nM.
Still for that read-out and setting: for `Cn1cc(-c2ncc(C(=O)NC3(C(=O)O)CCCCC3)c(C(F)(F)F)n2)c2ccc(OCCC3CCOCC3)cc21` [Compound I-117] the value was 10 to 100 nM.

The test is the same for the next values; noted with them: inhibitory effect against RSV type A (RSV A2 strain), HEp-2 cells, CPE inhibition; read-out: EC50.
Take `Cn1ccc(-n2cc(-c3ccc(C(=O)NC4(C(=O)O)C5CC6CC(C5)CC4C6)c(C(F)(F)F)n3)c3ccc(OC4CCN(c5ncccn5)CC4)cc32)c1` (stereo not drawn) [Compound I-334]: the concentration for a half-maximal effect (EC50) is less than 10 nM.
Consider `COC12CC3CC(C1)C(NC(=O)c1cnc(N4CC5(CCOCC5)c5cc(OC6CCN(c7ncccn7)CC6)ccc54)nc1C(F)(F)F)(C(=O)O)C(C3)C2` (single isomer, unassigned) [Compound I-211], for which the concentration giving a half-maximal response (EC50) is less than 10 nM.
For the compound `N#Cc1ccc(-n2cc(-c3ccc(C(=O)NC4(C(=O)O)C5CC6CC(C5)CC4C6)c(C(F)(F)F)n3)c3ccc(OC4CCN(c5ncccn5)CC4)cc32)cc1` (stereo not drawn) [Compound I-337], the EC50 is less than 10 nM.
As for `CC(F)(F)c1nc(N2CC3(CCOCC3)c3cc(OC4CCN(c5ncccn5)CC4)ccc32)ncc1C(=O)NC1(C(=O)O)C2CC3CC(C2)CC1C3` (stereo not drawn) [Compound I-294], the EC50 is less than 10 nM.
Still for that read-out and setting: for `Cc1cccnc1-n1cc(-c2ccc(C(=O)NC3(C(=O)O)C4CC5CC(C4)CC3C5)c(C(F)(F)F)n2)c2ccc(OC3CCN(c4ncccn4)CC3)cc21` (stereo not drawn) [Compound I-311] the value was less than 10 nM; for `O=C(NC1(C(=O)O)C2CC3CC(C2)CC1C3)c1cnc(N2CC3(CCOCC3)c3cc(Br)ccc32)nc1C(F)(F)F` (stereo not drawn) [Compound I-347], less than 10 nM.
Take `O=C(NC1(C(=O)O)C2CC3CC(C2)CC1C3)c1cnc(N2CC3(CCOCC3)c3cc(CN4CCN(c5ncccn5)CC4)ccc32)nc1C(F)(F)F` (stereo not drawn) [Compound I-360]: the EC50 is less than 10 nM.
As for `CC(F)(F)c1nc(-c2cn(C3CCC(F)CC3)c3cc(O[C@H]4CC[C@H](N5CC(F)(F)C5)CC4)ccc23)ncc1C(=O)NC1(C(=O)O)C2CC3CC(C2)CC1C3` (single isomer, unassigned) [Compound I-571], the EC50 was less than 10 nM.
Take `O=C(NC1(C(=O)O)C2CC3CC(C2)CC1C3)c1cnc(N2CC3(CCOCC3)c3cc4c(cc32)OC(F)(F)O4)nc1C(F)(F)F` (stereo not drawn) [Compound I-299]: the EC50 was in the range of 10 to 100 nM.

These data come from patent publication US12528790B2, “Amide derivative having antiviral activity” (Shionogi & Co., Ltd., priority 2020, dated 2026).
